Results published in patent US12202828B2, “Bicyclic heterocycle compounds and their uses in therapy” (ASTEX THERAPEUTICS LIMITED, priority 2013, dated 2025).
Where “and” joins values, the source holds several entries; their conditions need not be identical. Identical values can stand only once. Counter-ions that a name gives are not always drawn. Like-named read-outs stand apart in the source and are kept apart here.

How the values were obtained:
Assay type in all cases: cell-based
[1] = target: T1, XIAP-Caspase-9 in HEK293-XIAP-Caspase-9 cells (Homo sapiens, UniProt P98170); experiment: HEK293-XIAP-Caspase-9 immunoprecipitation (IP) MSD assay; conditions: compound 2 h at 37° C.; read-out: HEK293-X-C9 IP
T1 construct: FLAG; expressed in transfected cells
Method: Stable HEK293-XIAP-Caspase-9 cells were plated out into 96-well plates [200 μl/well at 1×10^6 cells/mL in cultured complete medium (DMEM+10% FBS+0.5 mg/mL Geneticin (Invitrogen)] and left overnight at 37° C. to recover. Compounds were added to duplicate wells in 0.1% DMSO for 2 h at 37° C. Cells were lysed in 50 μl 1×MSD lysis buffer (1% Triton X-100 in 20 mM Tris·Cl (pH 7.6), 150 mM NaCl including protease inhibitors) for 20 min rocking at room temperature. Streptavidin high bind MSD plate (L15SB-2) were coated with biotinylated anti-FLAG M2 antibody (Sigma F9291) at 25 μl/well with a 5 μg/mL dilution of antibody in PBS for 1 h, shaking; followed by blocking for 1 h with 150 μl 3% BSA/TBST. Cell lysate (25 μl) was added to the 96-well anti-FLAG coated MSD plate and placed on shaker for 4 h at room temperature. […] Plates were washed 4 times with 150 μl TBST, and 150 μl/well 1×MSD read buffer (R92TC-2) added before reading each plate.
EC50 values were determined from dose-response plots using nonlinear least-squares analysis.

[2] = target: T2, hERG ion channel (Homo sapiens, UniProt Q12809); experiment: Population Patch Clamp (PPC) hERG assay in CHO K1 cells; conditions: for IC50: CHO K1 cells stably transfected with hERG
T2 construct: expressed in transfected cells; host or cells: CHO K1
Method: Inhibition of the hERG channel was measured by automated patch clamp assay in CHO K1 cells, stably transfected with the hERG ion channel. PPC measurements were performed using an IonWorks Quattro instrument (Molecular Devices Corporation, Union City, CA) using a 384 well PatchPlate (Molecular Devices Corporation) with 64 apertures per well. Each concentration of test compound was tested in duplicate wells. Amphotericin B was used to obtain electrical access to the cell interior at a final concentration of 200 μg/mL. Human ether-à-gogo related gene (hERG) currents were measured with a prepulse to +40 mV (2 s) from the holding potential of −80 mV, followed by a step to −50 mV (2 s) to elicit the deactivating tail currents, before returning to the holding potential for 1s. Compounds were incubated for 600s between the pre- and post-compound reads. The external recording solution used was 130 mM Na Gluconate, 20 mM NaCl, 4 mM KCl, 1 mM MgCl2, 1.8 mM CaCl2, 10 mM Hepes, 5 mM Glucose, pH to 7.3 with NaOH. All data were filtered for seal quality, seal drop, and current amplitude. The maximum current amplitude of the 3rd pulse tail current was calculated before (Pre) and after (Post) compound addition and the amount of block assessed by dividing the Post-compound current amplitude by the Pre-compound current amplitude.

[3] = test system: EVSA-T (human breast carcinoma); experiment: Anti-proliferative activity, Alamar Blue assay, EVSA-T; conditions: 72 hours compound, read-out: EVSA-T prolif
Method: The method is based on the ability of viable cells to reduce resazurin to its fluorescent product resorufin. For each proliferation assay cells are plated onto 96 well plates and allowed to recover for 16 hours prior to the addition of inhibitor compounds (in 0.1% DMSO v/v) for a further 72 hours.
The anti-proliferative activities of compounds of the invention can be determined by measuring the ability of the compounds to inhibit growth in 3 cancer cell lines: • EVSA-T (human breast carcinoma) DSMZ cat. no.

T1 sequence (P98170 whole entry): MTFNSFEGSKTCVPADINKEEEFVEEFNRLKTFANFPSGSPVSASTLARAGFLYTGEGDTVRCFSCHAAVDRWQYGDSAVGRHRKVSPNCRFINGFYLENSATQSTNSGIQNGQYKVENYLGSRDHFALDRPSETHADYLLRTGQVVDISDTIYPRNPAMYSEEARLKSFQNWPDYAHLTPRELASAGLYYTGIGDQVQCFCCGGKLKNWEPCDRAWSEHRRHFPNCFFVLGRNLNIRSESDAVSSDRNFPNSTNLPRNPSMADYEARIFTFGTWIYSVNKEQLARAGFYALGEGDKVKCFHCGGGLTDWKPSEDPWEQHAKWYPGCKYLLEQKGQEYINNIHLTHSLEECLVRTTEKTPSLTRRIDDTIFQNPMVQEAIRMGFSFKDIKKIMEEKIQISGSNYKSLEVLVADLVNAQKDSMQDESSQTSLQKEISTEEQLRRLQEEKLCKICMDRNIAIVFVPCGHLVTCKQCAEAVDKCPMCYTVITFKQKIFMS
T2 sequence (Q12809 whole entry): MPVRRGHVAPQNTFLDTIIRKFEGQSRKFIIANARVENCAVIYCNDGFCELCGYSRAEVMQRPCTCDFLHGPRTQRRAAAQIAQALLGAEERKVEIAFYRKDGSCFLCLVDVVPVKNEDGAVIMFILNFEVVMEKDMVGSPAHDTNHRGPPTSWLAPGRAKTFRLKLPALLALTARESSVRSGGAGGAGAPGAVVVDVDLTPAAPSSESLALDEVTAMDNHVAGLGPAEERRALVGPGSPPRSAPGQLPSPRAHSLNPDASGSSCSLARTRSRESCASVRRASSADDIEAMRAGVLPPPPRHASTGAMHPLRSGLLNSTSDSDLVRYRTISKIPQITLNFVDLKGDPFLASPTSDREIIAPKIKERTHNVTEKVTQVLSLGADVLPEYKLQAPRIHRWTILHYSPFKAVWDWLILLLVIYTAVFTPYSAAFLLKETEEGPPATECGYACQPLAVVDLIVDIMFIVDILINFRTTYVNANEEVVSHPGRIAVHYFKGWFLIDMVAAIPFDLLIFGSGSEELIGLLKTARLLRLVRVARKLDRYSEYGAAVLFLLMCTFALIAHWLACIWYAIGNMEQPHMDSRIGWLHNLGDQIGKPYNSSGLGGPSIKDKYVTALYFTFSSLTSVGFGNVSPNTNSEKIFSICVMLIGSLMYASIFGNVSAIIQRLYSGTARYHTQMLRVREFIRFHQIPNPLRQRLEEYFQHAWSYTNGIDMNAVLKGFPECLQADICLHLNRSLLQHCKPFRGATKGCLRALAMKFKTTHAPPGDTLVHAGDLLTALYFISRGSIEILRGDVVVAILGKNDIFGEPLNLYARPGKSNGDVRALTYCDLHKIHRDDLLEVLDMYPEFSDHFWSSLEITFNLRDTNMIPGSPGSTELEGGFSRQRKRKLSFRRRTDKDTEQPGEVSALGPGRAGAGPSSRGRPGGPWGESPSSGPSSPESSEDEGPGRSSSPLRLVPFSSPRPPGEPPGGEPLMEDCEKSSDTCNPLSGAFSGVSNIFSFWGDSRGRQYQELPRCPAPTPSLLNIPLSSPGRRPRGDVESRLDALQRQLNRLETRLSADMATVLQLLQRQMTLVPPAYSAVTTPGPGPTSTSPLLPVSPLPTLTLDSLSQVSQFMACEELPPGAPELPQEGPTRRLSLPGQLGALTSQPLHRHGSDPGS

C[C@@H]1CN(CC(=O)N2CC(C)(C)c3c2cc(Cc2ccc(F)cc2F)c(=O)n3C)[C@@H](CN2[C@H](C)COC[C@H]2C)CN1 [Example 12, 6-[(2,4-Difluorophenyl)methyl]-1-{2-[(2R,5R)-2-{[(3R,5R)-3,5-dimethylmorpholin-4-yl]methyl}-5-methylpiperazin-1-yl]acetyl}-3,3,4-trimethyl-1H,2H,3H,4H,5H-pyrrolo [3,2-b]pyridin-5-one dihydrochloride]
EC50 [1]: 0.69 nM
hERG PPC (PI) ([2]; @ 100 μM): 41% @ 100

C[C@@H]1CN(CC(=O)N2CC(C)(C)c3nc(CO)c(Cc4cccc(F)c4)cc32)[C@@H](CN2CCOC[C@H]2C)CN1 [Example 15, 1-{6-[(3-Fluorophenyl)methyl]-5-(hydroxymethyl)-3,3-dimethyl-1H,2H,3H-pyrrolo[3,2-b]pyridin-1-yl}-2-[(2R,5R)-5-methyl-2-{[(3R)-3-methylmorpholin-4-yl]methyl}piperazin-1-yl]ethan-1-one dihydrochloride]
EC50 [1]: 4.9 nM
hERG PPC (PI) ([2]; @ 100 μM): 55% @ 100
EC50 ([3]; dihydrochloride): 7.8 nM
EC50 ([3]; Homo sapiens, EVSA-T, 72 h): < 10 nM

C[C@@H]1CN(CC(=O)N2CC(C)(C)c3cc(=O)n(Cc4ccc(F)cc4)cc32)[C@@H](CN2CCOC[C@H]2C)CN1 [Example 17, 6-[(4-Fluorophenyl)methyl]-3,3-dimethyl-1-{2-[(2R,5R)-5-methyl-2-{[(3R)-3-methylmorpholin-4-yl]methyl}piperazin-1-yl]acetyl}-1H,2H,3H,5H,6H-pyrrolo[2,3-c]pyridin-5-one dihydrochloride]
EC50 [1]: 28 nM
hERG PPC (PI) ([2]; @ 300 μM): 59% @ 300

C[C@@H]1CN(CC(=O)N2CC(C)(C)c3c2cc(Cc2ccc(F)cc2)c(=O)n3C)[C@@H](CN2C[C@H](C)OC[C@H]2C)CN1 [Example 18, 1-{2-[(2R,5R)-2-{[(2S,5R)-2,5-Dimethylmorpholin-4-yl]methyl}-5-methylpiperazin-1-yl]acetyl}-6-[(4-fluorophenyl)methyl]-3,3,4-trimethyl-1H,2H,3H,4H,5H-pyrrolo[3,2-b]pyridin-5-one trihydrochloride]
EC50 [1]: 1.2 nM
hERG PPC (PI) ([2]; @ 75 μM): 44% @ 75

C[C@@H]1CN(CC(=O)N2CC(C)(C)c3c2cc(Cc2ccc(F)cc2F)c(=O)n3C)[C@@H](CN2CCOC[C@H]2C)CN1 [Example 19, 6-[(2,4-Difluorophenyl)methyl]-3,3,4-trimethyl-1-{2-[(2R,5R)-5-methyl-2-{[(3R)-3-methylmorpholin-4-yl]methyl}piperazin-1-yl]acetyl}-1H,2H,3H,4H,5H-pyrrolo[3,2-b]pyridin-5-one dihydrochloride]
EC50 [1]: 1.2 nM
hERG PPC (PI) ([2]; @ 100 μM): 42% @ 100

C[C@@H]1CN(CC(=O)N2CC(C)(C)c3cc(=O)n(Cc4ccc(F)cc4F)cc32)[C@@H](CN2[C@H](C)COC[C@H]2C)CN1 [Example 20, 6-[(2,4-Difluorophenyl)methyl]-1-{2-[(2R,5R)-2-{[(3R,5R)-3,5-dimethylmorpholin-4-yl]methyl}-5-methylpiperazin-1-yl]acetyl}-3,3-dimethyl-1H,2H,3H,5H,6H-pyrrolo[2,3-c]pyridin-5-one dihydrochloride]
EC50 [1]: 6.3 nM
hERG PPC (PI) ([2]; @ 100 μM): 44% @ 100

C[C@@H]1CN(CC(=O)N2CC(C)(C)c3cc(=O)n(Cc4ccc(F)cc4F)cc32)[C@@H](CN2C[C@H](C)OC[C@H]2C)CN1.Cl.Cl [Example 22, 6-[(2,4-Difluorophenyl)methyl]-1-{2-[(2R,5R)-2-{[(2S,5R)-2,5-dimethylmorpholin-4-yl]methyl}-5-methylpiperazin-1-yl]acetyl}-3,3-dimethyl-1H,2H,3H,5H,6H-pyrrolo[2,3-c]pyridin-5-one dihydrochloride]
EC50 [1]: 3.9 nM
hERG PPC (PI) ([2]; @ 100 μM): 47% @ 100

C[C@@H]1CN(CC(=O)N2CC(C)(C)c3c2cc(Cc2ccc(F)cc2F)c(=O)n3N)[C@@H](CN2CCOC[C@H]2C)CN1.Cl.Cl [Example 23, 4-Amino-6-[(2,4-difluorophenyl)methyl]-3,3-dimethyl-1-{2-[(2R,5R)-5-methyl-2-{[(3R)-3-methylmorpholin-4-yl]methyl}piperazin-1-yl]acetyl}-1H,2H,3H,4H,5H-pyrrolo[3,2-b] pyridin-5-one dihydrochloride]
EC50 [1]: 0.77 nM
hERG PPC (PI) ([2]; @ 100 μM): 63% @ 100

C[C@@H]1CN(CC(=O)N2CC(C)(C)c3c2cc(Cc2ccc(F)cc2)c(=O)n3N)[C@@H](CN2CCOC[C@H]2C)CN1 [Example 24, 4-Amino-6-[(4-fluorophenyl)methyl]-3,3-dimethyl-1-{2-[(2R,5R)-5-methyl-2-{[(3R)-3-methylmorpholin-4-yl]methyl}piperazin-1-yl]acetyl}-1H,2H,3H,4H,5H-pyrrolo[3,2-b]pyridin-5-one dihydrochloride]
EC50 [1]: 0.58 nM and 1.1 nM
hERG PPC (PI) ([2]; @ 100 μM): 40% @ 100

CCCCc1cc2c(n(N)c1=O)C(C)(C)CN2C(=O)CN1C[C@@H](C)NC[C@@H]1CN1[C@H](C)COC[C@H]1C [Example 30, 4-Amino-6-butyl-1-{2-[(2R,5R)-2-{[(3R,5R)-3,5-dimethylmorpholin-4-yl]methyl}-5-methylpiperazin-1-yl]acetyl}-3,3-dimethyl-1H,2H,3H,4H,5H-pyrrolo[3,2-b]pyridin-5-one dihydrochloride]
EC50 [1]: 1.2 nM and 1.4 nM
IC50 [2]: 230000 nM

Cc1c2c(cn(Cc3ccc(F)cc3F)c1=O)N(C(=O)CN1C[C@@H](C)NC[C@@H]1CN1CCOC[C@H]1C)CC2(C)C [Example 31, 6-[(2,4-Difluorophenyl)methyl]-3,3,4-trimethyl-1-{2-[(2R,5R)-5-methyl-2-{[(3R)-3-methylmorpholin-4-yl]methyl}piperazin-1-yl]acetyl}-1H,2H,3H,5H,6H-pyrrolo[2,3-c]pyridin-5-one dihydrochloride]
EC50 [1]: 0.94 nM and 2.2 nM
IC50 [2]: 140000 nM

CCCCc1cc2c([nH]c1=O)C(C)(C)CN2C(=O)CN1C[C@@H](C)NC[C@@H]1CN1[C@H](C)COC[C@H]1C [Example 32, 6-Butyl-1-{2-[(2R,5R)-2-{[(3R,5R)-3,5-dimethylmorpholin-4-yl]methyl}-5-methylpiperazin-1-yl]acetyl}-3,3-dimethyl-1H,2H,3H,4H,5H-pyrrolo[3,2-b]pyridin-5-one dihydrochloride]
EC50 [1]: 1.5 nM
hERG PPC (PI) ([2]; @ 500 μM): 55% @ 500

CCCCc1cc2c(n(C)c1=O)C(C)(C)CN2C(=O)CN1C[C@@H](C)NC[C@@H]1CN1[C@H](C)COC[C@H]1C [Example 33, 6-Butyl-1-{2-[(2R,5R)-2-{[(3R,5R)-3,5-dimethylmorpholin-4-yl]methyl}-5-methylpiperazin-1-yl]acetyl}-3,3,4-trimethyl-1H,2H,3H,4H,5H-pyrrolo[3,2-b]pyridin-5-one dihydrochloride]
EC50 [1]: 2.4 nM
hERG PPC (PI) ([2]; @ 31.3 μM): 33% @ 31.3

CCCCc1cc2c(nc1CO)C(C)(C)CN2C(=O)CN1C[C@@H](C)NC[C@@H]1CN1[C@H](C)COC[C@H]1C [Example 34, 1-[6-Butyl-5-(hydroxymethyl)-3,3-dimethyl-1H,2H,3H-pyrrolo[3,2-b]pyridin-1-yl]-2-[(2R,5R)-2-{[(3R,5R)-3,5-dimethylmorpholin-4-yl]methyl}-5-methylpiperazin-1-yl] ethan-1-one dihydrochloride]
EC50 [1]: 3.8 nM
IC50 [2]: 55000 nM
